Patent publication US6683103B2, “Sulfonamides for treatment of endothelin-mediated disorders” (Texas Biotechnology Corporation, priority 1997, dated 2004)

How the values were obtained:
[1] = test system: Pulmonary Hypertension model; experiment: Pulmonary hypertension model, in vivo efficacy; parameters: species or system rat; key to in vivo Efficacy: ++ effective at 5 mg/kg; − no effect at 5 mg/kg; + effective at 15 mg/kg; details: Pulmonary Hypertension model
Description: As used herein, efficacy refers to the maximal effect that can be produced by a compound. Efficacy can be determined by methods known to those of skill in the art. For example, it can be determined by the properties of the compound and its receptor-effector system and is reflected in the plateau of the concentration-effect curve. In vivo efficacy refers to efficacy which is determined in an animal model. For example, in vivo efficacy of the compounds described herein can be determined by amelioration of hypoxia-induced pulmonary hypertension in rat. In this context, in vivo efficacy refers to the ability of a compound to restore an elevated pulmonary artery pressure to a normal value. […] J. Physiol. […] The in vivo activity was measured in a pulmonary hypertension model and is a measure of the activity of the compounds at selected dosages.

[2] = Papp (Table 4); format: in vitro ADME
[3] = Oral half-life and peak plasma levels in rat; format: in vivo
[4] = Stability of solutions, percent remaining by HPLC; format: physicochemical; details: 150 mg/mL; LABRASOL; 24 h
[5] = test system: ET-1-induced pressor response; experiment: ET-1-induced pressor responses in conscious, autonomically blocked rats; format: in vivo, rat; details: in 30 min at dosages as low as 30 mg/kg
Description: Animals were placed in a restrainer and allowed to regain consciousness. Thirty minutes later autonomic blockade was administered (atropine methyl nitrate, 3 mg/kg, IV, followed by propranalol, 2 mg/kg, IV). An hour later animals received a bolus injection of vehicle (0.5 ml) followed thirty minutes later by intravenous bolus administration of ET-1 (Control, 1 μg/kg). Following recovery from this challenge, test-compounds were administered by intravenous bolus administration (0.5 ml) and then re-challenged with ET-1 thirty minutes later. Results are expressed as the percent inhibition of the ET-1-induced pressor response after administration of the test compound compared to the pressor response induced by the control ET-1 challenge. In some cases a third ET-1 challenge was administered ninety minutes after administration of the test compound.

[6] = test system: DOCA-salt hypertensive rat; experiment: Deoxycorticosterone acetate (DOCA)-salt hypertensive rat model; format: in vivo
Description: E. Deoxycorticosterone Acetate (DOCA)-Salt Hypertensive Rat Model for Assessing in vivo Activity of Selected Compounds
Selected compounds disclosed herein have been tested for activity in the deoxycorticosterone acetate (DOCA)-salt hypertensive rat model. To perform these tests, silastic MDX4-4210 elastomer implants containing 47 mg (DOCA) were prepared according to the method of Ornmsbee et al. ((1973) the J. Pharm. Sci. 62:255-257). Briefly, DOCA is incorporated into silicon rubber implants for sustained release. To prepare the implants the DOCA is incorporated into unpolymerized silicone rubber, catalyst is added and the mixture is cast in a hemicylindrical shape.
Sprague Dawley rats (7-8 weeks old) were unilaterally nephrectomized under ketamine anesthesia and a DOCA-implant was placed on the left lateral dorsal abdomen of the animal. The rats were allowed to recover for three weeks. During recovery they were permitted free access to normal rat chow and 0.9% NaCl drinking solution in place of drinking water. The rats develop hypertension within 3 weeks.
All animals were used in the tests between 21 and 30 days post surgery. The mean arterial blood pressure in these animals ranged from 165-200 mm Hg.
On the day of experimentation, catheters were inserted under brevital anesthesia into the right femoral artery for measurement of blood pressure, and into the right femoral vein for administration of a selected compound. The animals were placed in a restrainer and allowed to recover for a minimum of 60 min or until a steady mean arterial blood pressure was recorded. At that time, the selected compound or control vehicle was administered either intravenously, as a 60 minute infusion, or orally by oral gavage. Blood pressure was recorded continuously for a further 10 hrs.

SMILES | in vivo Efficacy [1] | Papp [2] [×10⁻⁶ cm/s] | Peak Plasma Levels ([3]; in vivo) [µg/mL] | POt½ in Rat ([3]; oral) [h] | percent remaining (HPLC) [4] [%] | reduction of pressure [5] | effect on blood pressure [6]
Cc1cc2c(cc1CC(=O)c1sccc1S(=O)(=O)Nc1onc(C)c1Cl)OCO2 [N-(4-chloro-3-methyl-5-isoxazolyl)-2-[2-methyl-4,5-(methylenedioxy)phenylacetyl]thiophene-3-sulfonamide] | ++ | 2.32 | 173 | 4.1 | 90.1 | about 30% | –
Cc1noc(NS(=O)(=O)c2ccsc2C(=O)Cc2ccc3c(c2)OCO3)c1Cl [N-(4-chloro-3-methyl-5-isoxazolyl)-2-[(3,4-(methylenedioxy)phenylacetyl]thiophene-3-sulfonamide] | – | – | – | – | – | about 30% | effective in decreasing blood pressure
